Reference: patent US12606564B2, “Adenosine receptor antagonist compounds” (ILDONG PHARMACEUTICAL CO., LTD., priority 2019, dated 2026)
pIC50, pKi: −log10 of the molar value.

Experiments:
[1] = target: T1, Human recombinant adenosine A2A receptor (Homo sapiens, UniProt P29274); experiment: A2A receptor (A2AR) SPA binding assay with [3H] SCH58261; design: expressed in transfected cells; host or cells: HEK293 (HKE293 [sic]), membrane preparation; conditions: [3H] SCH58261 radioligand
Description: Test compound is weighed, then dissolved in 100% DMSO to prepare 20 mM stock solution. Dilute the stock solution with DMSO into 100× final concentration, and then use this DMSO solution to perform 3-fold serial dilution for totally 12 concentrations with DMSO. 10-fold diluting the serial dilutions with assay buffer to the working concentrations. […] SCH58261 as the radioligand. The assay buffer is prepared with DPBS containing 10 mM MgCl2. 5 μL of compound working solutions (a total of 12 concentrations starting from 1 or 3 μM, 1/3 dilution) is transferred to the wells by the 12-channel pipette. A2AR membrane is pre-incubated with adenosine deaminase for 15 min at room temperature. Then SPA beads are added and the membrane-bead suspension mixture is incubated for 30 min at room temperature with the rotary mixer. […] SCH58261 radioligand solution. Final concentration of DMSO in the A2AR SPA binding assay is 1%. Sealing the plates and incubate for 1 hr at 27° C. with vigorous mixing on a plate shaker. After 1 hr, centrifuge the plate (1000 rpm, 1 min), and settle the plate for 5 min prior to counting. The signal of radiation is measured by the Microbeta2. […] Non-specific binding refers to the wells containing reaction system with the presence of 100 μM SCH58261. The dose-response curve is fitted with GraphPad Prism 5 and IC50 values are calculated by log(inhibitor) vs. response—Variable slope program with the following formula: Y=Bottom+(Top−Bottom)/(1+10^[…] ligand concentration used in assay/radio ligand Kd)
The binding affinity of selected compounds against A2A receptor was assessed using the SPA binding assay described above.

[2] = target: human recombinant A2AR (Homo sapiens, UniProt P29274); experiment: Human A2A functional cAMP assay in human recombinant A2AR stable cell line (HEK293)
Description: cAMP assay was performed on human recombinant A2AR stable cell line (HEK293). The cells were cultured at 37° C. and 5% CO2 with culture medium (90% DMEM+10% FBS+500 μg/mL G418). […] Then, 100 nL compounds were transferred by Echo machine with 12 doses respectively. Cells were collected with stimulation buffer (1×HBSS with 5 mM HEPES+0.05 mM IBMX+0.1% BSA) and plated the cells at the density of 5,000 cells/well, centrifuged at 600 rpm for 3 min and then incubation with compounds at room temperature for 60 min. After that, 5 μL 4× Eu-cAMP tracer solution and 5 μL 4× ULight™-anti-cAMP solution were added into the cells, centrifuged at 600 rpm for 3 min and incubated for 60 min. cAMP signal was detected with Envision. GraphPad Prism (version 6.0) was used for the data analysis.
The A2A receptor antagonistic activity of selected compounds was assessed using the cAMP assay described above.

[3] = target: T2, Human recombinant adenosine A1 receptors (Homo sapiens, UniProt P30542); experiment: Human adenosine A1 receptor binding assay with [3H] DPCPX (purine compounds, Example 2.2); conditions: membranes of CHO-K1 cells
T2 construct: expressed in transfected cells; host or cells: CHO-K1, membrane preparation
T2 sequence (P30542 1-326): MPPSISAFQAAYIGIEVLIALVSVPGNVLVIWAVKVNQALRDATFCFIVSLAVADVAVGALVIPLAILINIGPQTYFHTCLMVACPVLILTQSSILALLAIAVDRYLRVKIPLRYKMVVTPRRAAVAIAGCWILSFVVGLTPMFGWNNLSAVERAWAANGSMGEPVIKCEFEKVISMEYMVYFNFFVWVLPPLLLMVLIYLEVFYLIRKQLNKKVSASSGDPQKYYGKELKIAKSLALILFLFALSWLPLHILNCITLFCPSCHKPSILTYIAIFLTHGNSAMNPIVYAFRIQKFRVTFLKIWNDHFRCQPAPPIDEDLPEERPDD
Description: Test compound is weighed, dissolved in DMSO to make a stock solution of 10 mM, diluted with DMSO to prepare working solutions, then 100-fold diluted to the indicated concentrations. Human recombinant adenosine A1 receptors expressed in CHO-K1 cells were used to prepare membranes in incubation buffer (20 mM HEPES (4-(2-hydroxyethyl)-1-piperazineethanesulfonic acid) pH 7.4, 10 mM MgCl2, 100 mM NaCl). Test compound or vehicle (2.2 μL) was added in 200 μL of membranes and incubated with 20 μL of 1 nM [^3H] DPCPX (8-cyclopentyl-1,3-dipropylxanthine) for 90 minutes at 25° C. Non-specific binding was estimated in the presence of 100 μM R(−)-PIA ((R)—N-(1-methyl-2-phenylethyl)adenosine). The incubation was stopped by vacuum filtration onto 0.3% PEI (polyethylenimine) presoaked GF/B filters using a harvester followed by four washes with ice-cold 50 mM Tris-HCl, pH 7.4, and the radioactivity on GF/B filtermats counted in a scintillation counter (PerkinElmer Topcount™) to determine [^3H] DPCPX specifically bound. Final concentration of vehicle DMSO is 1%. Data is fitted using the non-linear curve fitting routines in Meth-IQ software (ID Business Solutions Ltd., UK).
The binding affinity of selected compounds against A1 receptor was assessed using the binding assay described above.

[4] = target: T1, Human recombinant adenosine A2A receptor; experiment: Human adenosine A2A receptor binding assay with [3H] CGS-21680 (Example 4.2); conditions: summary of Table 5, binding assays of Examples 4.1 and 4.2
Description: Test compound is weighed, dissolved in DMSO to make a stock solution of 10 mM, diluted with DMSO to prepare working solutions, then 100-fold diluted to the indicated concentrations. Human recombinant adenosine A2A receptors expressed in HEK-293 cells were used to prepare membranes in incubation buffer (50 mM Tris-HCl, pH 7.4, 10 mM MgCl2, 1 mM EDTA, 2 U/ml Adenosine Deaminase). Test compound or vehicle (2.2 μL) was added in 200 μL of membranes and incubated with 20 μL of 50 nM [^3H] […] Non-specific binding was estimated in the presence of 50 μM NECA (5′-N-ethylcarboxamidoadenosine). The incubation was stopped by vacuum filtration onto 0.3% PEI (polyethylenimine) presoaked GF/B filters using a harvester followed by four washes with ice-cold 50 mM Tris-HCl, pH 7.4, and the radioactivity on GF/B filtermats counted in a scintillation counter (PerkinElmer Topcount™) to determine [^3H] […] Final concentration of vehicle DMSO is 1%.

T1 sequence (P29274 whole entry): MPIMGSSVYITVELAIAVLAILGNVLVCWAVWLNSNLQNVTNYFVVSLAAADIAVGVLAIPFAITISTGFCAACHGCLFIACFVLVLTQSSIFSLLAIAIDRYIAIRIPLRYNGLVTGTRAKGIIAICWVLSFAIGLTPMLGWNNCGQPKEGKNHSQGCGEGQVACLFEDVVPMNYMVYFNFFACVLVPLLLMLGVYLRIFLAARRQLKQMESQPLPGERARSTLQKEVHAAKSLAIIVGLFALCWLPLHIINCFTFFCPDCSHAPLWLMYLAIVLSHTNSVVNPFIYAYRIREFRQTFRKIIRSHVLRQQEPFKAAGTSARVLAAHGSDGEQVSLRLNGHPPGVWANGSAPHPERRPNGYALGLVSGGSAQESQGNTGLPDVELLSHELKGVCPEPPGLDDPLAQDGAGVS
Sequence of human recombinant A2AR (P29274 whole entry): as above

| SMILES | pKi [1] | pIC50 [2] | pKi [3] | activity as dual antagonists of both A2A and A1 receptors (in words) [4] |
| --- | --- | --- | --- | --- |
| N#Cc1cc(-c2nc(N)nc3c2ncn3Cc2c(F)cccc2F)ccn1 [Compound 134, 4-[2-amino-9-[(2,6-difluorophenyl)methyl]purin-6-yl]pyridine-2-carbonitrile] | 7.00 to 8.00 |  |  |  |
| N#Cc1cc(-c2nc(N)nc3c2ncn3Cc2ccc(N)cc2)ccn1 [Compound 118, 4-[2-amino-9-[(4-aminophenyl)methyl]purin-6-yl]pyridine-2-carbonitrile] | < 6.30 |  |  |  |
| N#Cc1cccc(-c2nc(N)nc3c2cnn3Cc2ccc(N)cc2F)c1F [Compound 203, 3-(6-amino-1-(4-amino-2-fluorobenzyl)-1H-pyrazolo[3,4-d]pyrimidin-4-yl)-2-fluorobenzonitrile] |  |  |  | potent activity as dual antagonists |
| N#Cc1cccc(-c2nc(N)nc3c2ncn3Cc2ccc(N)c(C(F)(F)F)c2)c1 [Compound 110, 3-[2-amino-9-[[4-amino-3-(trifluoromethyl)phenyl]methyl]purin-6-yl]benzonitrile] | > 8.00 | > 6.52 | 6.00 to 6.52 |  |
| N#Cc1cccc(-c2nc(N)nc3c2ncn3Cc2ccc(N)cc2)c1F [Compound 102, 3-(2-amino-9-(4-aminobenzyl)-9H-purin-6-yl)-2-fluorobenzonitrile] | 6.30 to 7.00 |  |  |  |
| N#Cc1cccc(-c2nc(N)nc3c2cnn3Cc2ccc(N)c(C(F)(F)F)c2)c1F [Compound 211, 3-(6-amino-1-(4-amino-3-(trifluoromethyl)benzyl)-1H-pyrazolo[3,4-d]pyrimidin-4-yl)-2-fluorobenzonitrile] |  |  |  | potent activity as dual antagonists |
| Cc1cc(Cn2cnc3c(-c4cccc(C#N)c4F)nc(N)nc32)ccc1N [Compound 106, 3-(2-amino-9-(4-amino-3-methylbenzyl)-9H-purin-6-yl)-2-fluorobenzonitrile] | 7.00 to 8.00 |  | < 6.00 |  |
| N#Cc1ccnc(-c2nc(N)nc3c2ncn3Cc2ccc(N)cc2F)c1 [Compound 120, 2-[2-amino-9-[(4-amino-2-fluoro-phenyl)methyl]purin-6-yl]pyridine-4-carbonitrile] | > 8.00 | > 6.52 | 6.00 to 6.52 |  |
| Cc1cc(Cn2cnc3c(-c4cccc(C#N)c4)nc(N)nc32)ccc1N [Compound 104, 3-(2-amino-9-(4-amino-3-methylbenzyl)-9H-purin-6-yl)benzonitrile] | > 8.00 | > 6.52 | < 6.00 |  |
| N#Cc1ccnc(-c2nc(N)nc3c2ncn3Cc2c(F)cc(N)cc2F)c1 [Compound 124, 2-[2-amino-9-[(4-amino-2,6-difluoro-phenyl)methyl]purin-6-yl]pyridine-4-carbonitrile] | > 8.00 | > 6.52 | ≥ 6.52 |  |
| N#Cc1cccc(-c2nc(N)nc3c2ncn3Cc2ccc(N)cc2F)c1 [Compound 109, 3-(2-amino-9-(4-amino-2-fluorobenzyl)-9H-purin-6-yl)benzonitrile] | > 8.00 | > 6.52 | 6.00 to 6.52 |  |
| N#Cc1cccc(-c2nc(N)nc3c2ncn3Cc2c(F)cccc2F)c1F [Compound 113, 3-(2-amino-9-(2,6-difluorobenzyl)-9H-purin-6-yl)-2-fluorobenzonitrile] | 7.00 to 8.00 | 6.00 to 6.52 | 6.00 to 6.52 |  |

Continued, values first:

| pKi [1] | pIC50 [2] | pKi [3] | activity as dual antagonists of both A2A and A1 receptors (in words) [4] | SMILES |
| --- | --- | --- | --- | --- |
| 6.30 to 7.00 |  |  |  | N#Cc1cccc(-c2nc(N)nc3c2ncn3Cc2ccc(N)cc2F)n1 [Compound 119, 6-[2-amino-9-[(4-amino-2-fluoro-phenyl)methyl]purin-6-yl]pyridine-2-carbonitrile] |
| 7.00 to 8.00 | 6.00 to 6.52 | 6.00 to 6.52 |  | N#Cc1cccc(-c2nc(N)nc3c2ncn3Cc2c(F)cc(N)cc2F)c1F [Compound 108, 3-(2-amino-9-(4-amino-2,6-difluorobenzyl)-9H-purin-6-yl)-2-fluorobenzonitrile] |
| > 8.00 | > 6.52 | ≥ 6.52 |  | N#Cc1ccnc(-c2nc(N)nc3c2ncn3Cc2c(F)cccc2F)c1 [Compound 132, 2-[2-amino-9-[(2,6-difluorophenyl)methyl]purin-6-yl]pyridine-4-carbonitrile] |
|  |  |  | potent activity as dual antagonists | N#Cc1cccc(-c2nc(N)nc3c2cnn3Cc2c(F)cccc2F)c1F [Compound 213, 3-(6-amino-1-(2,6-difluorobenzyl)-1H-pyrazolo[3,4-d]pyrimidin-4-yl)-2-fluorobenzonitrile] |
| 7.00 to 8.00 | < 6.00 | < 6.00 |  | N#Cc1cccc(-c2nc(N)nc3c2ncn3Cc2ccc(N)cc2F)c1F [Compound 103, 3-(2-amino-9-(4-amino-2-fluorobenzyl)-9H-purin-6-yl)-2-fluorobenzonitrile] |
| > 8.00 | > 6.52 | ≥ 6.52 |  | N#Cc1cccc(-c2nc(N)nc3c2ncn3Cc2c(F)cccc2F)c1 [Compound 112, 3-(2-amino-9-(2,6-difluorobenzyl)-9H-purin-6-yl) benzonitrile] |
| 6.30 to 7.00 |  |  |  | N#Cc1cncc(-c2nc(N)nc3c2ncn3Cc2c(F)cc(N)cc2F)c1 [Compound 125, 5-[2-amino-9-[(4-amino-2,6-difluoro-phenyl)methyl]purin-6-yl]pyridine-3-carbonitrile] |
| > 8.00 | > 6.52 | ≥ 6.52 |  | N#Cc1cccc(-c2nc(N)nc3c2ncn3Cc2c(F)cc(N)cc2F)c1 [Compound 107, 3-(2-amino-9-(4-amino-2,6-difluorobenzyl)-9H-purin-6-yl)benzonitrile] |
| 7.00 to 8.00 |  |  |  | N#Cc1cc(-c2nc(N)nc3c2ncn3Cc2c(F)cc(N)cc2F)ccn1 [Compound 126, 4-[2-amino-9-[(4-amino-2,6-difluoro-phenyl)methyl]purin-6-yl]pyridine-2-carbonitrile] |
| 7.00 to 8.00 |  | < 6.00 |  | Cc1c(C#N)cccc1-c1nc(N)nc2c1ncn2Cc1c(F)cccc1F [Compound 114, 3-(2-amino-9-(2,6-difluorobenzyl)-9H-purin-6-yl)-2-methylbenzonitrile] |
| 7.00 to 8.00 | < 6.00 | < 6.00 |  | N#Cc1cccc(-c2nc(N)nc3c2ncn3Cc2ccc(N)cc2)c1 [Compound 101, 3-(2-amino-9-(4-aminobenzyl)-9H-purin-6-yl) benzonitrile] |
| > 8.00 | 6.00 to 6.52 | 6.00 to 6.52 |  | Cc1cc(Cn2cnc3c(-c4cc(C#N)ccn4)nc(N)nc32)ccc1N [Compound 128, 2-[2-amino-9-[(4-amino-3-methyl-phenyl)methyl]purin-6-yl]pyridine-4-carbonitrile] |
| < 6.30 |  |  |  | Cc1c(C#N)cccc1-c1nc(N)nc2c1ncn2Cc1ccc(N)cc1 [Compound 105, 3-(2-amino-9-(4-aminobenzyl)-9H-purin-6-yl)-2-methylbenzonitrile] |
| 7.00 to 8.00 | < 6.00 | < 6.00 |  | N#Cc1cccc(-c2nc(N)nc3c2ncn3Cc2ccc(N)c(C(F)(F)F)c2)c1F [Compound 111, 3-[2-amino-9-[[4-amino-3-(trifluoromethyl)phenyl]methyl]purin-6-yl]2-fluorobenzonitrile] |
